Entries after “also recorded” stand apart in the source; their conditions may differ.

Assay [1] deals with PC-3 prostate cancer xenografts. As to the kind of experiment: tumorigenicity assay, PC-3 xenografts. The format is in vivo, nude mice. Particulars: 10 mg/kg, i.p.; for growth of PC-3 prostate cancer xenografts: from day 5 post injection. On the procedure: PC-3 cells (2×10^6/site) were implanted into hindquarters of nude mice. On day 5 post injection, treatment was commenced with 34-mer and 18-mer (10 mg/kg, i.p.).

Assay [2] deals with Human microvascular endothelial cells. The assay can be described thus: endothelial cell apoptosis assay (ApopTag / TUNEL). Format: cell-based. Particulars: for induction of endothelial cell apoptosis: HMVEC, overnight, low serum media, with or without bFGF, FIG. 4. On the procedure:
Confluent HMVEC cells growing on coverslips were incubated overnight in low serum media (0.2% FBS in MCDB)±PEDF peptides in the presence or absence of bFGF. ApopTag Fluorescein kit (Chemicon) was used to determine apoptotic cells. […] 3-5 fields (10×) were analyzed with epi-fluorescent microscope, and cells were counted using MetaMorph software. Apoptotic (FITC positive) cells were calculated as a % of total cells stained with PI per field.
The ability of the 34-mer fragments to induce endothelial cell apoptosis was next measured (FIG. 4).
In further experiments, human microvascular endothelial cells were treated with PEDF18 (SEQ ID NO:2) and PEDF11 (SEQ ID NO:102). Apoptosis was measured after 24 hours with terminal dUTP Nick-end Labeling (TUNEL) assay. […] It is noted that one advantage of PEDF11 over longer PEDF derivatives is in that this sequence is below critical length so it can be non-immunogenic during continuous applications.

Assay [3] has the same test system. The assay can be described thus: endothelial cell chemotaxis assay (bFGF-induced migration). Format: cell-based. Particulars: for inhibition of bFGF-induced migration (chemotaxis): peptide at increasing concentrations; for inhibitor activity on bFGF-induced migration compared with native PEDF: vs rhPEDF at 20 nM. On the procedure:
The initial testing was done in the endothelial cell chemotaxis assay. Human microvascular endothelial cells to traverse gelatinized microporous membrane up the gradient of bFGF was tested in the absence and in the presence of the 14-, 18- and 23-mer peptides (FIG. 3). Human microvascular endothelial cells were plated on the lower side of gelatinized microporous membrane and allowed to adhere. The peptides (14-, 18 and 23-mer) were added at increasing concentrations to the opposite side of the gelatinized microporous membrane ([…]), alone, or in combination with basic fibroblast growth factor (bFGF, 10 ng/ml). The cells migratied to the opposite side of the membrane were counted in 10 high-powered (100×) fields. Every condition was tested in quadruplicate. bFGF-induced chemotaxis is shown (top line in each graph). Basal migration levels (0.1% bovine serum albumin) are indicated with the dotted line. Triangles (▴) show peptide alone; while squares (▪) show peptide with bFGF. The solid line (below the top line mentioned above) indicates the effect of the recombinant human PEDF (rhPEDF) at 20 nM.
Several truncated variants of P18 (SEQ ID NO:2) were generated, including an 11-mer (NFGYDLYRVRS; SEQ ID NO:102) which has the first 11 bases of P18, and an 8-mer, (NFGYDLYR; SEQ ID NO:119), which has the first 8 bases of P18. These variants were screened in endothelial cell apoptosis and chemotaxis assays, seeking those that inhibit chemotaxis and induce apoptosis with specific activity similar or better than that of P18. In particular, microvascular endothelial cells were plated in inverted modified Boyden chambers, and chemotaxis induced with bFGF (10 ng/ml). The cells migrated to bFGF were counted in 10 high-powered fields. Results for the 8-mer (SEQ ID NO:119) and the 11-mer (SEQ ID NO:102) are shown in FIGS. 12A and 12B respectively.

Another assay deals with angiogenesis. As to the kind of experiment: directed in vivo angiogenesis assay (DIVAA), s.c. matrigel angioreactors. Details: species or system nude mice. The note with it: for anti-angiogenic effect in DIVAA: bFGF 37.5 and VEGF 12.5 ng/ml, day 7. On the procedure:
FIGS. 5A and 5B show the results of a corneal angiogenesis assay. The 34 mer and 18-mer peptides were incorporated with bFGF (50 ng/pellet) into slow-release sucralfate pellets, which were surgically implanted into the cornea of anesthetized mice, 0.5-1 mm from the vascular limbus. The responses were scored on day 5 post implantation and the ingrowth of blood vessels from the cornea to the pellet was considered a positive response. The responses were scored as positive corneas of total implanted: statistical significance was evaluated with Fisher's Exact test. P<0.05 was considered significant. […] The peptides were incorporated with a mix of bFGF and VEGF (37.5 and 12.5 ng/ml, respectively) into angioreactors filled with matrigel. The reactors were implanted s.c onto the flanks of the nude mice. On day 7, The reactors were harvested and photographed (5C). Endothelial cells collected from implants by dilution/centrifugation, stained with FITC-lectin and quantified by flow cytometry (5D).
Finally, the peptides were tested in vivo, in the corneal angiogenesis and directed in vivo angiogenesis assay (DIVAA). The 34-mer derivatives were compared in vivo with parental PEDF peptide, the 34-mer. FIG. 5 A, B: Corneal angiogenesis assay: the peptides were incorporated with bFGF (50 ng/pellet) into slow-release sucralfate pellets, which were surgically implanted into the cornea of anesthetized mice, 0.5-1 mm from the vascular limbus. The responses were scored on day 5 post implantation and the ingrowth of blood vessels from the cornea to the pellet was considered a positive response. The responses were scored as positive corneas of total implanted: statistical significance was evaluated with Fisher's Exact test. P<0.05 was considered significant. […] 5C, D. DIVAA of the 34-mer and derivative peptides. The peptides were incorporated with a mix of bFGF and VEGF (37.5 and 12.5 ng/ml, respectively) into angioreactors filled with matrigel. The reactors were implanted s.c onto the flanks of the nude mice. On day 7, the reactors were harvested and photographed (5C). Endothelial cells collected from implants by dilution/centrifugation, stained with FITC-lectin and quantified by flow cytometry (5D).

Assay [4] relates to Mouse renal carcinoma cells (Renca, ATCC). As to the kind of experiment: orthotopic renal cell carcinoma xenograft model (tumor growth and metastases). Format: in vivo. On the procedure: Mouse renal carcinoma cells (Renca, ATCC) were injected under the kidney capsule (0.5×10^6/site). Animals were randomly divided into 6 groups (8 per group) and the treatment started 5 days after inoculation (intraperitoneal injections). The following treatment groups were included: P18 (SEQ ID NO:2; 10 mg/kg); P18 (60 mg/kg); Rapamycin (R, 0.5 mg/kg); R+P18 (10 mg/kg) and R+P18 (60 mg/kg). The control group was treated with scrambled peptide, YFNGRSSPSNTNTYYVDRL (SEQ ID NO:51). After 17 days of treatment both kidneys were removed. To assess tumor growth, the weight of healthy kidney was subtracted from the weight of tumor-inoculated kidney, for each animal. The difference represents the weight of the tumor.
Metastases formation was also examined in the liver and lungs of the in the control treated animals and the groups treated with P18 and scrambled peptide (FIG. 9). The % affected organs is indicated under the representative images.

Assay [5] relates to choroidal neovascularization. As to the kind of experiment: laser-induced choroidal neovascularization (CNV) mouse model. The format is in vivo, mice. On the procedure:
This Example describes further characterization of P18 (PEDF18) and fragments thereof. […] Intravitreous injections of 1 μg (n=24), 10 μg (n=24) of PEDF18, or vehicle (n=21) were given at the day of laser photocoagulation-induced rupture of Bruch's membrane. Two weeks after laser induction, mice were euthanized and the area of CNV was measured. […] NV=neovascularization.

Another assay relates to corneal angiogenesis. The assay can be described thus: corneal angiogenesis assay. The format is in vivo, mice. The note with it: bFGF 50 ng/pellet; scored day 5. On the procedure: FIGS. 5A and 5B show the results of a corneal angiogenesis assay. The 34 mer and 18-mer peptides were incorporated with bFGF (50 ng/pellet) into slow-release sucralfate pellets, which were surgically implanted into the cornea of anesthetized mice, 0.5-1 mm from the vascular limbus. The responses were scored on day 5 post implantation and the ingrowth of blood vessels from the cornea to the pellet was considered a positive response. The responses were scored as positive corneas of total implanted: statistical significance was evaluated with Fisher's Exact test. P<0.05 was considered significant. […] Endothelial cells collected from implants by dilution/centrifugation, stained with FITC-lectin and quantified by flow cytometry (5D).
Finally, the peptides were tested in vivo, in the corneal angiogenesis and directed in vivo angiogenesis assay (DIVAA). […] The responses were scored on day 5 post implantation and the ingrowth of blood vessels from the cornea to the pellet was considered a positive response. The responses were scored as positive corneas of total implanted: statistical significance was evaluated with Fisher's Exact test. […] Endothelial cells collected from implants by dilution/centrifugation, stained with FITC-lectin and quantified by flow cytometry (5D).

With “34-mer: 34-mer PEDF peptide (amino acids 44-77 at the N-terminus), parental PEDF peptide (DPFFKVPVNKLAAAVSNFGYDLYRVRSSMSPTTN) [reference compound]”, the “growth of PC-3 prostate cancer xenografts” value in assay [1] is “only marginal effect”.
Turning to AAAVSNFGYDLYRVRSSTSPTTN [23-mer], the “induction of endothelial cell apoptosis” value in assay [2] is listed as “failed to induced apoptosis”. Also, the “inhibition of bFGF-induced migration (chemotaxis)” value (from here on “inhibition”) in assay [3] (bFGF 10 ng/ml) was “comparable to PEDF at low concentrations and lost its inhibitory activity at higher doses”. Also, in the assay with angiogenesis, the “anti-angiogenic effect in DIVAA” value is on record as “failed to inhibit angiogenesis”.
DLYRVRSSTSPTTN [14-mer]: the “induction of endothelial cell apoptosis” value in assay [2] is listed as “very weak induction of apoptosis”. Besides, the “inhibition” value in assay [3] (bFGF 10 ng/ml) was “inhibited bFGF-induced migration in a dose-dependent manner”. The “inhibitor activity on bFGF-induced migration compared with native PEDF” value in assay [3] is reported as “superior to that of native PEDF”.
As for NFGYDLYRVRS [PEDF11], the “concentration causing EC apoptosis” value in assay [2] was 10 to 100 nM. For the same substance, the “concentration at which chemotaxis is inhibited” value in assay [3] (bFGF 10 ng/ml, FIG. 12B) lay in the range of 1 to 10 nM. Also, the “inhibition” value in assay [3] (bFGF 10 ng/ml) is “dose-dependent inhibition”. For the same substance, the “efficacy compared with P18” value in assay [3] (chemotaxis inhibition and EC apoptosis, vs P18 (FIG. 3)) is given as “comparable to that of P18”.
Turning to NFGYDLYRVRSSTSPTTN [18-mer], the “induction of endothelial cell apoptosis” value in assay [2] was “more potent than the parental PEDF and as potent as the 34-mer”. In assay [4] (P18 alone, i.p., 17 days of treatment, vs scrambled peptide), the tumor weight result is “significant (P<0.0003) decrease in tumor weight”. Also, the liver metastases entry in assay [4] (P18 treatment, FIG. 9) is listed as “eradicated liver metastases”. For the same substance, the “inhibition” value in assay [3] (bFGF 10 ng/ml) was “inhibited bFGF-induced migration in a dose-dependent manner”. Moreover, in assay [3], the “inhibitor activity on bFGF-induced migration compared with native PEDF” value is given as “superior to that of native PEDF”. In assay [5] (intravitreous 1 μg or 10 μg, two weeks after laser induction, vs vehicle), the “area of CNV at laser sites” value was “significantly smaller areas of neovascularization”. Moreover, the “choroidal neovascularization (overall effect)” value in assay [5] (mouse, laser-induced, listed as PEDF18) was “suppresses choroidal neovascularization; also recorded: effectively alleviated laser-induced choroidal neovascularization (CNV)”. For the same substance, the “anti-angiogenic effect in corneal angiogenesis assay” value with corneal angiogenesis was “showed the best anti-angiogenic characteristics”. Also, the “anti-angiogenic effect in DIVAA” value in the assay on angiogenesis was “showed the best anti-angiogenic characteristics”. Moreover, in the assay with angiogenesis (in vitro and in vivo in the subcutaneous matrigel plug assays), the “blocking of VEGF-induced angiogenesis” value was “effectively blocks VEGF-induced angiogenesis”. The “activity in blocking angiogenesis compared with the 34-mer” value with angiogenesis (mouse, in vivo) was “more active in blocking angiogenesis than the original 34-mer”. Further, the “growth of PC-3 prostate cancer xenografts” value in assay [1] is “significantly inhibited the growth”. Besides, the tumor volume result in assay [1] (FIG. 6) is “substantial reduction in tumor volume”.
